How the values were obtained:
[1] = tested on: IFN-γ transcript; test: RT-PCR of IFN-γ transcript in SLE T cells; type: cell-based, human
Method: (§1) T cells were cultured in the absence or presence of increasing concentrations of TSA for 18 hr in 5% CO2 at 37° C. RNA was isolated, cDNAs were prepared, and RT-PCR was performed as previously detailed (D. Laxminarayana, et al., J. Clin. Invest. 92, 2207 (1993)). The primers used were: […]
(§2) The reaction mixtures were subjected to 30 cycles of denaturation (94° C., 1 min) and annealing for 1 min at 53° C. (CD154), […] (GAPDH) and 55° C. (IL-10 and IFN-γ). Extension was for 2 min at 72° C. with a final extension of 7 min at 72° C. using a DNA thermal cycler (Perkin-Elmer).
Low production of IFN-γ by SLE T cells may reflect down-regulation of gene expression (B. S. Handwerger, et al., in Lupus: Molecular and Cellular Pathogenesis, G. M. Kammer and G. C. Tsokos, Eds. (Humana Press, Totowa, N.J., 1999), chap. 21; E. Hagiwara, et al., Arthritis Rheum. 39, 379 (1996)). To establish whether TSA can up-regulate IFN-γ expression, SLE T cells were treated for 18 hr in the absence or presence of TSA. During that time, TSA induced a three-fold increase in IFN-γ transcript compared to untreated cells (FIG. 3A, lanes 1 and 7, and FIG. 3B). When T cells were activated with PMA+IO in the absence of TSA, peak IFN-γ transcript expression increased 13-fold at 1 hr over basal levels relative to GAPDH transcript, but waned thereafter. […]

[2] = tested on: TGF-β1 protein; test: TGF-β1 protein secretion by PBMCs; type: cell-based, human
Method: Gene expression of TGF-β1 was tested to determine if the gene expression is suppressed by deacetylation of histones in SLE. In this determination, SLE PBMCs or isolated T cells were treated with the histone deacetylase inhibitors (HDIs), TSA or SAHA, for 18hr. […] Subsequently, semi-quantitative PCR was performed to determine the amounts of […] transcripts in SLE and control T cells treated with vehicle or TSA (1000 ng/ml). […] There is no change in GAPDH transcript in normal and SLE T cells after treatment of HDIs. Increased TGF-β1 transcript was associated with a subsequent increase in TGF-β1 protein secretion by SLE PBMCs. When compared to vehicle treated PBMCs, total TGF-β1 protein in culture supernatants from SLE PBMCs increased by approximately 30%. In contrast, there was no increase in total TGF-β1 secretion in TSA treated cells in normal healthy controls. Similar results may be obtained by SAHA.

[3] = tested on: IL-10 protein; test: IL-10 protein production by SLE T cells (ELISA); type: cell-based, human
Method: To determine whether TSA could down-regulate IL-10, a dose-response analysis was performed. […] However, when SLE T cells were cultured in the presence of TSA for 18 hr, no detectable IL-10 transcripts were identified (FIG. 2C, lanes 3, 6, 9). When IL-10 transcripts from all eight SLE subjects were quantified relative to GAPDH transcripts, TSA inhibited expression of IL-10 mRNA by 71% (FIG. 2D; P=0.029). […] IL-10 and IFN-γ protein production were quantified by ELISA (R & D Systems, Minneapolis, Minn.). […] Thus, like CD154, TSA was able to block expression of IL-10 transcript, abolishing IL-10 production by SLE T cells.

[4] = tested on: acetylated H3 and H4 histones; test: Immunoblot of acetylated H3 and H4 histones in MRL/lpr splenocytes; type: cell-based, mouse; settings: 18 hr exposure
Text: One mechanism by which HDIs suppress transcription of cytokine genes in MRL/lpr splenocytes may be by increasing accumulation of acetylated histones which may result in chromatin remodeling. The accumulation of acetylated histones H3 and H4 in HDI-treated splenocytes was quantified to test this hypothesis. FIG. 12 is an immunoblot analysis of the acetylation levels of H3 and H4 histones.

[5] = tested on: CD154 transcript; test: RT-PCR of CD154 transcript in SLE T cells; type: cell-based, human
Text: Because SLE T cells are often activated (D. T. Y. Yu et al., J. Exp. Med. 151, 91 (1980).), the up-regulation of CD154 and IL-10 and down-regulation of IFN-γ may reflect skewed gene expression due to enhanced recruitment of HDACs to the promoters of these genes. The resulting disequilibrium of acetylation might be expected to alter the chromatin structure of the promoters (R. D. Komberg and Y. Lorch, Curr. Opin. Gen. Dev. 9, 148 (1999)), thereby activating previously silenced genes while repressing expressed genes. To determine if TSA can down-regulate CD154 transcript expression, T cells from eight SLE subjects were treated with increasing concentrations of TSA over 18 hr.
as §1, §2
When SLE T cells were activated with phorbol myristate acetate (PMA) and ionomycin (IO), CD154 mRNA content increased 100%, peaked at 3 hr, and waned thereafter (FIGS. 1C and 1D).

## CC(/C=C/C(=O)NO)=C\[C@@H](C)C(=O)c1ccc(N(C)C)cc1 [TSA, Trichostatin A]
[1]; SLE T cells activated with PMA+IO in presence of TSA, at 6 hr, P=0.031
  peak increase in IFN-γ mRNA over untreated cells relative to GAPDH: 37 fold
[1]; SLE T cells, TSA 18 hr, not activated
  increase in IFN-γ transcript compared to untreated cells: three-fold
[2]; SLE PBMCs exposed to TSA and SAHA (summary statement)
  rise in the synthesis of TGF-β1 protein: 30%
[2]; SLE PBMCs, compared to vehicle treated PBMCs
  increase of total TGF-β1 protein in culture supernatants: approximately 30%
[2]; TSA treated cells of normal healthy controls
  total TGF-β1 secretion: no increase
[3]; SLE T cells, at 24 hr
  inhibition of IL-10 synthesis: complete inhibition
[3]; SLE T cells, within 6 hr
  inhibition of IL-10 production: 90%
[3]; T cells from eight SLE subjects, 18 hr
  TSA concentration of maximal inhibition of IL-10 protein production: 300 ng/mL
[4]
  accumulation of acetylated H3 and H4 histones: marked increase
[5]; SLE T cells preincubated with TSA 18 hr (1000 ng/ml), then PMA+IO to 24 hr, vs cells not exposed, P<0.001
  up-regulation of CD154 transcript on PMA+IO activation: significantly reduced
[5]; SLE T cells, increasing TSA
  GAPDH mRNA expression: does not modify
[5]; SLE T cells, increasing TSA (0–1000 ng/ml), 18 hr, relative to GAPDH
  maximal inhibition of CD154 transcript: 60%
